In paper PMC9917201, “Enhanced Antibacterial Activity of Substituted Derivatives of NCR169C Peptide” (International Journal of Molecular Sciences, 2023):
≈ marks a conversion by molar mass, not a printed value. Where two headings read alike, the source gives them in different places. Non-standard residues stand in square brackets, D forms with d. Residues, ends and D or L forms follow the SMILES beside them. ξ: configuration not given here. Trp(5-F) = N[C@@H](Cc1c[nH]c2ccc(F)cc12)C(=O)O; ξTrp(5-OMe) = COc1ccc2[nH]cc(CC(N)C(=O)O)c2c1; ξTrp(5-Me) = Cc1ccc2[nH]cc(CC(N)C(=O)O)c2c1

What was measured:
Format in all cases: cell-based
[1] = system: Acinetobacter baumannii (ATCC 17978)
From the text: (§1) The bacterial strains for the antimicrobial assay were obtained from the ATCC (American Type Culture Collection, Manassas, VA, USA) and NCTC (National Collection of Type Cultures, Salisbury, UK). Gram-negative strains were Pseudomonas aeruginosa (ATCC 27853), Escherichia coli (ATCC 8739, ATCC 35218, and ATCC 25922), Salmonella enterica (ATCC 13076), Klebsiella pneumoniae (NCTC 13440), Acinetobacter baumannii (ATCC 17978) and the Gram-positive strains were Enterococcus faecalis (ATCC 29212), Listeria monocytogenes (ATCC 19111), and Staphylococcus aureus (HNCMO112011 and ATCC 25923).
(§2) Determination of antibacterial activity for the peptides was carried out by utilizing a minimum bactericidal concentration (MBC) bioassay. Synthesized peptides were dissolved in sterile water and used from 25 to 0.125 μM in 2-fold dilution series and incubated with ~10^7 log phase bacteria in Potassium-Phosphate Buffer (PPB, pH: 7.4) for three hours as described earlier. After that, 5 μl of each sample was placed on LB agar and the growth of bacteria was monitored after overnight incubation at 37 °C. The lowest concentration of the antimicrobial agents that completely eliminated viable bacteria was considered the minimal bactericidal concentration (MBC).

[2] = system: Enterococcus faecalis (ATCC 29212)
From the text: as §1, §2

[3] = system: Escherichia coli (ATCC 8739); details: ATCC 8739, 3 h, pH 7.4
From the text: as §1, §2

[4] = system: Listeria monocytogenes (ATCC 19111); details: ATCC 19111, 3 h, pH 7.4
From the text: as §1, §2

[5] = system: Pseudomonas aeruginosa (ATCC 27853); details: ATCC 27853, 3 h, pH 7.4
From the text: as §1, §2

[6] = system: Salmonella enterica (ATCC 13076); details: ATCC 13076, 3 h, pH 7.4
From the text: as §1, §2

[7] = system: Staphylococcus aureus (HNCMO112011); details: HNCMO112011, 3 h, pH 7.4
From the text: as §1, §2

[8] = system: Klebsiella pneumoniae (NCTC 13440); details: NCTC 13440, 3 h, pH 7.4
From the text: as §1, §2

[9] = system: tested bacteria (ESKAPE pathogens, Listeria monocytogenes, Salmonella enterica); details: 3 h, pH 7.4
From the text: as §1, §2

[10] = Acinetobacter baumannii ATCC 17978, ~10^7 log phase bacteria, 3 h in PPB pH 7.4, peptide 25 to 0.125 μM 2-fold series, plated on LB agar, overnight 37 °C

Row | SMILES | Minimal bactericidal concentration (MBC) A. b. ([1]; ATCC 17978, 3 h, pH 7.4) [µM] | Minimal bactericidal concentration (MBC) E. f. ([2]; ATCC 29212, 3 h, pH 7.4) [µM] | Minimal bactericidal concentration (MBC) E. c. [3] [µM] | Minimal bactericidal concentration (MBC) L. m. [4] [µM] | Minimal bactericidal concentration (MBC) P. a. [5] [µM] | Minimal bactericidal concentration (MBC) S. e. [6] [µM] | Minimal bactericidal concentration (MBC) S. a. [7] [µM] | Minimal bactericidal concentration (MBC) A. b. [1, 10] [µM] | Minimal bactericidal concentration (MBC) K. p. [8] [µM] | MBC against most or all of the tested bacteria [9] [µM] | Minimal bactericidal concentration (MBC) E. f. ([2]; Enterococcus faecalis ATCC 29212, ~10^7 log phase bacteria, 3 h in potassium-phosphate buffer (PPB) pH 7.4, peptide 25 to 0.125 μM 2-fold series, 5 μl on LB agar, overnight 37 °C) [µM]
1 | CC[C@H](C)[C@H](NC(=O)[C@H](CCCCN)NC(=O)[C@H](Cc1ccccc1)NC(=O)[C@H](CC(C)C)NC(=O)[C@@H]1CCCN1C(=O)[C@H](CCCCN)NC(=O)[C@H](CCCCN)NC(=O)[C@H](CO)NC(=O)[C@@H](N)CCCCN)C(=O)N[C@@H](C)C(=O)N[C@@H](CCCCN)C(=O)N[C@@H](CO)C(=O)N[C@H](C(=O)N[C@@H](CCC(=O)O)C(=O)N[C@@H](CC(N)=O)C(=O)N[C@H](C(=O)N[C@@H](CO)C(=O)N[C@H](C(=O)N[C@@H](CC(C)C)C(=O)N[C@@H](C)C(=O)N[C@@H](Cc1ccc(O)cc1)C(=O)N[C@@H](CCCCN)C(N)=O)C(C)C)C(C)C)C(C)C [NCR169C17–38W10,20/A,C12,17/S] (H-KSKKPLFKIAKSVENVSVLAYK-NH2) | 12.5 (≈ 31 µg/mL) | 25 (≈ 61.9 µg/mL) | 6.3 (≈ 15.6 µg/mL) | 3.1 (≈ 7.68 µg/mL) | 3.1 (≈ 7.68 µg/mL) | 6.3 (≈ 15.6 µg/mL) | 6.3 (≈ 15.6 µg/mL) | – | – | – | –
2 | CC[C@H](C)[C@H](NC(=O)[C@H](CCCCN)NC(=O)[C@H](Cc1ccccc1)NC(=O)[C@H](CC(C)C)NC(=O)[C@@H]1CCCN1C(=O)[C@H](CCCCN)NC(=O)[C@H](CCCCN)NC(=O)[C@H](CO)NC(=O)[C@@H](N)CCCCN)C(=O)NC(Cc1c[nH]c2ccc(C)cc12)C(=O)N[C@@H](CCCCN)C(=O)N[C@@H](CO)C(=O)N[C@H](C(=O)N[C@@H](CCC(=O)O)C(=O)N[C@@H](CC(N)=O)C(=O)N[C@H](C(=O)N[C@@H](CO)C(=O)N[C@H](C(=O)N[C@@H](CC(C)C)C(=O)N[C@@H](Cc1c[nH]c2ccccc12)C(=O)N[C@@H](Cc1ccc(O)cc1)C(=O)N[C@@H](CCCCN)C(N)=O)C(C)C)C(C)C)C(C)C (stereo partly shown) [NCR169C17–38C12,17/S-10W^5-Me I] (H-KSKKPLFKI[ξTrp(5-Me)]KSVENVSVLWYK-NH2; N-terminus assumed) | – | 3.1 (≈ 8.44 µg/mL) | 3.1 (≈ 8.44 µg/mL) | 3.1 (≈ 8.44 µg/mL) | 3.1 (≈ 8.44 µg/mL) | 3.1 (≈ 8.44 µg/mL) | 3.1 (≈ 8.44 µg/mL) | 6.3 (≈ 17.1 µg/mL) | 6.3 (≈ 17.1 µg/mL) | – | –
3 | CC[C@H](C)[C@H](NC(=O)[C@H](CCCCN)NC(=O)[C@H](Cc1ccccc1)NC(=O)[C@H](CC(C)C)NC(=O)[C@@H]1CCCN1C(=O)[C@H](CCCCN)NC(=O)[C@H](CCCCN)NC(=O)[C@H](CO)NC(=O)[C@@H](N)CCCCN)C(=O)NC(Cc1c[nH]c2ccc(C)cc12)C(=O)N[C@@H](CCCCN)C(=O)N[C@@H](CO)C(=O)N[C@H](C(=O)N[C@@H](CCC(=O)O)C(=O)N[C@@H](CC(N)=O)C(=O)N[C@H](C(=O)N[C@@H](CO)C(=O)N[C@H](C(=O)N[C@@H](CC(C)C)C(=O)N[C@@H](Cc1c[nH]c2ccccc12)C(=O)N[C@@H](Cc1ccc(O)cc1)C(=O)N[C@@H](CCCCN)C(N)=O)C(C)C)C(C)C)C(C)C (stereo partly shown) [NCR169C17–38C12,17/S-10W^5-Me II] (H-KSKKPLFKI[ξTrp(5-Me)]KSVENVSVLWYK-NH2; N-terminus assumed) | – | 3.1 (≈ 8.44 µg/mL) | 3.1 (≈ 8.44 µg/mL) | 3.1 (≈ 8.44 µg/mL) | 3.1 (≈ 8.44 µg/mL) | 3.1 (≈ 8.44 µg/mL) | 3.1 (≈ 8.44 µg/mL) | 3.1 (≈ 8.44 µg/mL) | 6.3 (≈ 17.1 µg/mL) | – | –
4 | CC[C@H](C)[C@H](NC(=O)[C@H](CCCCN)NC(=O)[C@H](Cc1ccccc1)NC(=O)[C@H](CC(C)C)NC(=O)[C@@H]1CCCN1C(=O)[C@H](CCCCN)NC(=O)[C@H](CCCCN)NC(=O)[C@H](CO)NC(=O)[C@@H](N)CCCCN)C(=O)N[C@@H](C)C(=O)N[C@@H](CCCCN)C(=O)N[C@@H](C)C(=O)N[C@H](C(=O)N[C@@H](CCC(=O)O)C(=O)N[C@@H](CC(N)=O)C(=O)N[C@H](C(=O)N[C@@H](C)C(=O)N[C@H](C(=O)N[C@@H](CC(C)C)C(=O)N[C@@H](C)C(=O)N[C@@H](Cc1ccc(O)cc1)C(=O)N[C@@H](CCCCN)C(N)=O)C(C)C)C(C)C)C(C)C [NCR169C17–38W10,20C12,17/A] (H-KSKKPLFKIAKAVENVAVLAYK-NH2) | 12.5 (≈ 30.6 µg/mL) | – | 6.3 (≈ 15.4 µg/mL) | – | 3.1 (≈ 7.58 µg/mL) | 6.3 (≈ 15.4 µg/mL) | 6.3 (≈ 15.4 µg/mL) | – | – | – | –
5 | CC[C@H](C)[C@H](NC(=O)[C@H](CCCCN)NC(=O)[C@H](Cc1ccccc1)NC(=O)[C@H](CC(C)C)NC(=O)[C@@H]1CCCN1C(=O)[C@H](CCCCN)NC(=O)[C@H](CCCCN)NC(=O)[C@H](CO)NC(=O)[C@@H](N)CCCCN)C(=O)NC(Cc1c[nH]c2ccc(OC)cc12)C(=O)N[C@@H](CCCCN)C(=O)N[C@@H](CO)C(=O)N[C@H](C(=O)N[C@@H](CCC(=O)O)C(=O)N[C@@H](CC(N)=O)C(=O)N[C@H](C(=O)N[C@@H](CO)C(=O)N[C@H](C(=O)N[C@@H](CC(C)C)C(=O)N[C@@H](Cc1c[nH]c2ccccc12)C(=O)N[C@@H](Cc1ccc(O)cc1)C(=O)N[C@@H](CCCCN)C(N)=O)C(C)C)C(C)C)C(C)C (stereo partly shown) [NCR169C17–38C12,17/S-10W^5-MeO I] (H-KSKKPLFKI[ξTrp(5-OMe)]KSVENVSVLWYK-NH2; N-terminus assumed) | 1.6 (≈ 4.38 µg/mL) | 1.6 (≈ 4.38 µg/mL) | 3.1 (≈ 8.49 µg/mL) | 1.6 (≈ 4.38 µg/mL) | – | 1.6 (≈ 4.38 µg/mL) | 1.6 (≈ 4.38 µg/mL) | – | 1.6 (≈ 4.38 µg/mL) | 1.6 | –
6 | CC[C@H](C)[C@H](NC(=O)[C@H](CCCCN)NC(=O)[C@H](Cc1ccccc1)NC(=O)[C@H](CC(C)C)NC(=O)[C@@H]1CCCN1C(=O)[C@H](CCCCN)NC(=O)[C@H](CCCCN)NC(=O)[C@H](CO)NC(=O)[C@@H](N)CCCCN)C(=O)N[C@@H](Cc1c[nH]c2ccccc12)C(=O)N[C@@H](CCCCN)C(=O)N[C@@H](CO)C(=O)N[C@H](C(=O)N[C@@H](CCC(=O)O)C(=O)N[C@@H](CC(N)=O)C(=O)N[C@H](C(=O)N[C@@H](CO)C(=O)N[C@H](C(=O)N[C@@H](CC(C)C)C(=O)NC(Cc1c[nH]c2ccc(C)cc12)C(=O)N[C@@H](Cc1ccc(O)cc1)C(=O)N[C@@H](CCCCN)C(N)=O)C(C)C)C(C)C)C(C)C (stereo partly shown) [NCR169C17–38C12,17/S-20W^5-Me II] (H-KSKKPLFKIWKSVENVSVL[ξTrp(5-Me)]YK-NH2; N-terminus assumed) | 3.1 (≈ 8.44 µg/mL) | – | 1.6 (≈ 4.35 µg/mL) | 3.1 (≈ 8.44 µg/mL) | 3.1 (≈ 8.44 µg/mL) | 3.1 (≈ 8.44 µg/mL) | 3.1 (≈ 8.44 µg/mL) | – | 3.1 (≈ 8.44 µg/mL) | – | 25 (≈ 68 µg/mL)
7 | CC[C@H](C)[C@H](NC(=O)[C@H](CCCCN)NC(=O)[C@H](Cc1ccccc1)NC(=O)[C@H](CC(C)C)NC(=O)[C@@H]1CCCN1C(=O)[C@H](CCCCN)NC(=O)[C@H](CCCCN)NC(=O)[C@H](CO)NC(=O)[C@@H](N)CCCCN)C(=O)N[C@@H](Cc1c[nH]c2ccccc12)C(=O)N[C@@H](CCCCN)C(=O)N[C@@H](CO)C(=O)N[C@H](C(=O)N[C@@H](CCC(=O)O)C(=O)N[C@@H](CC(N)=O)C(=O)N[C@H](C(=O)N[C@@H](CO)C(=O)N[C@H](C(=O)N[C@@H](CC(C)C)C(=O)N[C@@H](Cc1c[nH]c2ccc(F)cc12)C(=O)N[C@@H](Cc1ccc(O)cc1)C(=O)N[C@@H](CCCCN)C(N)=O)C(C)C)C(C)C)C(C)C [NCR169C17–38C12,17/S-20W^5-F-L] (H-KSKKPLFKIWKSVENVSVL[Trp(5-F)]YK-NH2; N-terminus assumed) | 3.1 (≈ 8.45 µg/mL) | 3.1 (≈ 8.45 µg/mL) | 3.1 (≈ 8.45 µg/mL) | 3.1 (≈ 8.45 µg/mL) | 6.3 (≈ 17.2 µg/mL) | 3.1 (≈ 8.45 µg/mL) | 1.6 (≈ 4.36 µg/mL) | – | 3.1 (≈ 8.45 µg/mL) | – | –
